ChEMBL document CHEMBL1201862, “PubChem BioAssay data set” (2004)
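Briefly, cells in 96-well plates were exposed to five compound concentrations for 48 h, and endpoints were estimated by linear interpolation. GI50 is the concentration that inhibits growth by half.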 Calls of active or inactive are those of the source. Cut-off read from the data, not from the text of the source: active = GI50 up to about 1.1 µM and inactive = higher.

Key:
Experiment in all cases: NCI anticancer screen, dose series, 48 h
SNB-75 = system: SNB-75
T47D = system: T47D
NCI-H522 = system: NCI-H522
UO-31 = system: UO-31
SK-MEL-2 = system: SK-MEL-2
MDA-MB-435 = system: MDA-MB-435
TK-10 = system: TK-10
Hs-578T = system: Hs-578T
MDA-MB-231 = system: MDA-MB-231
OVCAR-4 = system: OVCAR-4
SK-MEL-28 = system: SK-MEL-28
U-251 = system: U-251
SK-MEL-5 = system: SK-MEL-5
OVCAR-3 = system: OVCAR-3
PC-3 = system: PC-3
SF-268 = system: SF-268
BT-549 = system: BT-549
A498 = system: A498
LOX IMVI = system: LOX IMVI
SNB-19 = system: SNB-19
OVCAR-8 = system: OVCAR-8
SF-539 = system: SF-539
RPMI-8226 = system: RPMI-8226
A549 = system: A549
Malme-3M = system: Malme-3M
RXF 393 = system: RXF 393
SN12C = system: SN12C
UACC-62 = system: UACC-62
786-0 = system: 786-0
HCC 2998 = system: HCC 2998
NCI-H23 = system: NCI-H23
SK-OV-3 = system: SK-OV-3
CAKI-1 = system: CAKI-1
HOP-92 = system: HOP-92
DU-145 = system: DU-145
OVCAR-5 = system: OVCAR-5
UACC-257 = system: UACC-257
NCI-H460 = system: NCI-H460
M14 = system: M14
HOP-62 = system: HOP-62
MDA-N = system: MDA-N
HCT-15 = system: HCT-15
HT-29 = system: HT-29
COLO 205 = system: COLO 205
NCI/ADR-RES = system: NCI/ADR-RES
MOLT-4 = system: MOLT-4
IGROV-1 = system: IGROV-1
MCF7 = system: MCF7
ACHN = system: ACHN
SF-295 = system: SF-295
CCRF-CEM = system: CCRF-CEM
NCI-H226 = system: NCI-H226
HCT-116 = system: HCT-116
HL-60 = system: HL-60
SW-620 = system: SW-620
K562 = system: K562
KM12 = system: KM12
EKVX = system: EKVX

With `Cc1cc(C)c2c(c1)CC1(Cc3ccc(C)c(C)c3C1=O)C2=O` (stereo unspecified) as the molecule, how does the GI50 (SNB-75) read?
The GI50 was > 100 µM (inactive).

What about the GI50 (T47D) of the same molecule?
Its GI50 is > 100 µM (inactive).

And the GI50 (NCI-H522)?
Its GI50 is > 100 µM (inactive).

And the GI50 (UO-31)?
Its GI50 is > 100 µM (inactive).

What about the GI50 (SK-MEL-2) of the same molecule?
Its GI50 is > 100 µM (inactive).

What about the GI50 (MDA-MB-435) of the same molecule?
The GI50 was 2.24 µM (inactive).

And the GI50 (TK-10)?
The GI50 was 49.8 µM (inactive).

What about the GI50 (Hs-578T) of the same molecule?
Its GI50 is 11.4 µM (inactive).

And the GI50 (MDA-MB-231)?
Its GI50 is 6.24 µM (inactive).

What about the GI50 (OVCAR-4) of the same molecule?
Its GI50 is 45.9 µM (inactive).

And the GI50 (SK-MEL-28)?
Its GI50 is > 100 µM (inactive).

What about the GI50 (U-251) of the same molecule?
Its GI50 is 45.2 µM (inactive).

And the GI50 (SK-MEL-5)?
Its GI50 is > 100 µM (inactive).

What about the GI50 (OVCAR-3) of the same molecule?
The GI50 was > 100 µM (inactive).

What about the GI50 (PC-3) of the same molecule?
Its GI50 is 56.2 µM (inactive).

And the GI50 (SF-268)?
Its GI50 is > 100 µM (inactive).

What about the GI50 (BT-549) of the same molecule?
The GI50 was > 100 µM (inactive).

What about the GI50 (A498) of the same molecule?
The GI50 was > 100 µM (inactive).

And the GI50 (LOX IMVI)?
The GI50 was > 100 µM (inactive).

And the GI50 (SNB-19)?
The GI50 was > 100 µM (inactive).

And the GI50 (OVCAR-8)?
The GI50 was > 100 µM (inactive).

And the GI50 (SF-539)?
The GI50 was > 100 µM (inactive).

And the GI50 (RPMI-8226)?
The GI50 was > 100 µM (inactive).

What about the GI50 (A549) of the same molecule?
The GI50 was > 100 µM (inactive).

What about the GI50 (Malme-3M) of the same molecule?
Its GI50 is 3.56 µM (inactive).

And the GI50 (RXF 393)?
The GI50 was 15.8 µM (inactive).

And the GI50 (SN12C)?
Its GI50 is > 100 µM (inactive).

What about the GI50 (UACC-62) of the same molecule?
The GI50 was > 100 µM (inactive).

And the GI50 (786-0)?
Its GI50 is > 100 µM (inactive).

What about the GI50 (HCC 2998) of the same molecule?
Its GI50 is > 100 µM (inactive).

What about the GI50 (NCI-H23) of the same molecule?
Its GI50 is > 100 µM (inactive).

What about the GI50 (SK-OV-3) of the same molecule?
The GI50 was > 100 µM (inactive).

What about the GI50 (CAKI-1) of the same molecule?
The GI50 was > 100 µM (inactive).

What about the GI50 (HOP-92) of the same molecule?
Its GI50 is > 100 µM (inactive).

And the GI50 (DU-145)?
The GI50 was > 100 µM (inactive).

And the GI50 (OVCAR-5)?
Its GI50 is > 100 µM (inactive).

And the GI50 (UACC-257)?
Its GI50 is > 100 µM (inactive).

And the GI50 (NCI-H460)?
Its GI50 is > 100 µM (inactive).

What about the GI50 (M14) of the same molecule?
The GI50 was > 100 µM (inactive).

How did the GI50 (SNB-75) turn out when `Cc1cc2c3c(ccc4[nH]cc(c43)CN2c2ccc(NS(C)(=O)=O)cc2)n1` was run?
The GI50 was 16.9 µM (inactive).

What about the GI50 (HOP-62) of the same molecule?
Its GI50 is 19.6 µM (inactive).

And the GI50 (MDA-N)?
The GI50 was > 100 µM (inactive).

And the GI50 (NCI-H522)?
The GI50 was 5.75 µM (inactive).

What about the GI50 (UO-31) of the same molecule?
Its GI50 is 12.7 µM (inactive).

And the GI50 (SK-MEL-2)?
The GI50 was 37.7 µM (inactive).

And the GI50 (MDA-MB-435)?
The GI50 was > 100 µM (inactive).

And the GI50 (TK-10)?
The GI50 was 26.2 µM (inactive).

And the GI50 (HCT-15)?
The GI50 was over 100 µM.

What about the GI50 (Hs-578T) of the same molecule?
Its GI50 is > 100 µM (inactive).

And the GI50 (MDA-MB-231)?
Its GI50 is 22 µM (inactive).

What about the GI50 (HT-29) of the same molecule?
The GI50 was > 100 µM (inactive).

And the GI50 (OVCAR-4)?
The GI50 was > 100 µM (inactive).

And the GI50 (COLO 205)?
The GI50 was > 100 µM (inactive).

What about the GI50 (NCI/ADR-RES) of the same molecule?
The GI50 was > 100 µM (inactive).

And the GI50 (SK-MEL-28)?
The GI50 was > 100 µM (inactive).

And the GI50 (MOLT-4)?
The GI50 was 3.02 µM (inactive).

What about the GI50 (U-251) of the same molecule?
Its GI50 is 22.5 µM (inactive).

And the GI50 (SK-MEL-5)?
Its GI50 is > 100 µM (inactive).

What about the GI50 (OVCAR-3) of the same molecule?
The GI50 was 21.2 µM (inactive).

And the GI50 (PC-3)?
The GI50 was > 100 µM (inactive).

What about the GI50 (IGROV-1) of the same molecule?
The GI50 was 48.4 µM (inactive).

What about the GI50 (SF-268) of the same molecule?
The GI50 was 3.28 µM (inactive).

And the GI50 (BT-549)?
The GI50 was 35.5 µM (inactive).

And the GI50 (MCF7)?
Its GI50 is 65 µM (inactive).

And the GI50 (A498)?
The GI50 was 41.4 µM (inactive).

And the GI50 (LOX IMVI)?
The GI50 was > 100 µM (inactive).

And the GI50 (ACHN)?
Its GI50 is 70.3 µM (inactive).

What about the GI50 (SF-295) of the same molecule?
Its GI50 is 51.9 µM (inactive).

What about the GI50 (SNB-19) of the same molecule?
Its GI50 is 1.83 µM (inactive).

What about the GI50 (CCRF-CEM) of the same molecule?
The GI50 was 8.41 µM (inactive).

What about the GI50 (OVCAR-8) of the same molecule?
The GI50 was 29 µM (inactive).

What about the GI50 (RPMI-8226) of the same molecule?
Its GI50 is 13.5 µM (inactive).

What about the GI50 (NCI-H226) of the same molecule?
Its GI50 is 28.3 µM (inactive).

What about the GI50 (A549) of the same molecule?
The GI50 was 25.6 µM (inactive).

What about the GI50 (RXF 393) of the same molecule?
Its GI50 is 28.9 µM (inactive).

What about the GI50 (UACC-62) of the same molecule?
The GI50 was > 100 µM (inactive).

And the GI50 (HCT-116)?
The GI50 was 11.4 µM (inactive).

What about the GI50 (786-0) of the same molecule?
The GI50 was 11.4 µM (inactive).

And the GI50 (HCC 2998)?
The GI50 was 30.2 µM (inactive).

What about the GI50 (HL-60) of the same molecule?
Its GI50 is 28.1 µM (inactive).

What about the GI50 (NCI-H23) of the same molecule?
The GI50 was 20.8 µM (inactive).

What about the GI50 (SK-OV-3) of the same molecule?
The GI50 was 32.3 µM (inactive).

And the GI50 (SW-620)?
Its GI50 is > 100 µM (inactive).

And the GI50 (CAKI-1)?
The GI50 was 25.9 µM (inactive).

What about the GI50 (HOP-92) of the same molecule?
Its GI50 is 24.5 µM (inactive).

And the GI50 (K562)?
The GI50 was 90.6 µM (inactive).

What about the GI50 (KM12) of the same molecule?
Its GI50 is > 100 µM (inactive).

And the GI50 (DU-145)?
The GI50 was 49.1 µM (inactive).

And the GI50 (OVCAR-5)?
Its GI50 is > 100 µM (inactive).

What about the GI50 (UACC-257) of the same molecule?
Its GI50 is > 100 µM (inactive).

And the GI50 (NCI-H460)?
Its GI50 is 91.6 µM (inactive).

What about the GI50 (M14) of the same molecule?
Its GI50 is > 100 µM (inactive).

What about the GI50 (EKVX) of the same molecule?
Its GI50 is 26.8 µM (inactive).

What does the source list for `CC(C)(C)c1ccc(O)c(C(O)c2ccncc2)c1` (stereo unspecified)?
GI50 (SNB-75): 68.7 µM (inactive); GI50 (T47D): 16.9 µM (inactive); GI50 (HOP-62): > 100 µM (inactive); GI50 (NCI-H522): > 100 µM (inactive); GI50 (UO-31): > 100 µM (inactive); GI50 (HCT-15): 52.4 µM; GI50 (Hs-578T): 37.7 µM (inactive); GI50 (MDA-MB-231): 62.8 µM (inactive); GI50 (HT-29): > 100 µM (inactive); GI50 (COLO 205): > 100 µM (inactive); GI50 (NCI/ADR-RES): 53 µM (inactive); GI50 (SK-MEL-28): > 100 µM (inactive); GI50 (MOLT-4): 76.4 µM (inactive); GI50 (SK-MEL-5): 24.1 µM (inactive); GI50 (OVCAR-3): > 100 µM (inactive); GI50 (IGROV-1): > 100 µM (inactive); GI50 (SF-268): > 100 µM (inactive); GI50 (BT-549): > 100 µM (inactive); GI50 (ACHN): 52.4 µM (inactive); GI50 (CCRF-CEM): > 100 µM (inactive); GI50 (OVCAR-8): > 100 µM (inactive); GI50 (SF-539): > 100 µM (inactive); GI50 (NCI-H226): 72.1 µM (inactive); GI50 (A549): 83.2 µM (inactive); GI50 (Malme-3M): 62.7 µM (inactive); GI50 (RXF 393): 45.4 µM (inactive); GI50 (HCT-116): > 100 µM (inactive); GI50 (786-0): > 100 µM (inactive); GI50 (HCC 2998): 39.7 µM (inactive); GI50 (NCI-H23): 70.8 µM (inactive); GI50 (SW-620): > 100 µM (inactive); GI50 (CAKI-1): > 100 µM (inactive); GI50 (K562): 61.4 µM (inactive); GI50 (KM12): > 100 µM (inactive); GI50 (DU-145): > 100 µM (inactive); GI50 (OVCAR-5): 70.8 µM (inactive); GI50 (NCI-H460): > 100 µM (inactive); GI50 (EKVX): 44.6 µM (inactive)
